Source: patent publication US9695155B2, “Herbicidal substituted pyrimidinyloxy benzene compounds” (E. I. DU PONT DE NEMOURS AND COMPANY, priority 2013, dated 2017)

How the values were obtained:
barnyardgrass [1] = experiment: Test B flooded paddy test; assay type: in vivo, Echinochloa crus-galli; conditions: Flood, 250 g ai/ha; 0 to 100 scale where 0 is no effect and 100 is complete control
Method: (§1) Plant species in the flooded paddy test selected from rice (Oryza sativa), sedge, umbrella (small-flower umbrella sedge, Cyperus difformis), (Heteranthera limosa), and barnyardgrass (Echinochloa crus-galli) were grown to the 2-leaf stage for testing. At time of treatment, test pots were flooded to 3 cm above the soil surface, treated by application of test compounds directly to the paddy water, and then maintained at that water depth for the duration of the test. Treated plants and controls were maintained in a greenhouse for 13 to 15 days, after which time all species were compared to controls and visually evaluated. Plant response ratings, summarized in Table B, are based on a scale of 0 to 100 where 0 is no effect and 100 is complete control. A dash (-) response means no test result.

barnyardgrass [2] = experiment: Test A postemergence; assay type: in vivo, Echinochloa crus-galli
Excerpt: (§2) Seeds of plant species selected from barnyardgrass (Echinochloa crus-galli), kochia (Kochia scoparia), ragweed (common ragweed, Ambrosia elatior), Italian ryegrass (Lolium multiflorum), large (Lg) crabgrass (Digitaria sanguinalis), giant foxtail (Setaria faberii), morningglory (Ipomoea spp.), pigweed (Amaranthus retroflexus), velvetleaf (Abutilon theophrasti), wheat (Triticum aestivum), and corn (Zea mays) were planted into a blend of loam soil and sand and treated preemergence with a directed soil spray using test chemicals formulated in a non-phytotoxic solvent mixture which included a surfactant.
(§3) At the same time, plants selected from these crop and weed species and also blackgrass (Alopecurus myosuroides), and galium (catchweed bedstraw, Galium aparine) were planted in pots containing the same blend of loam soil and sand and treated with postemergence applications of test chemicals formulated in the same manner. Plants ranged in height from 2 to 10 cm and were in the one- to two-leaf stage for the postemergence treatment. Treated plants and untreated controls were maintained in a greenhouse for approximately 10 days, after which time all treated plants were compared to untreated controls and visually evaluated for injury. Plant response ratings, summarized in Table A, are based on a 0 to 100 scale where 0 is no effect and 100 is complete control. A dash (-) response means no test result.

wheat [3] = experiment: Test A postemergence; assay type: in vivo, Triticum aestivum
In short: (§4)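 Scoring: eye-based comparison with untreated controls, 0 for no effect through 100 for complete control, at about day 10. Treatments: directed soil spray preemergence; foliar spray postemergence on 2–10 cm plants at the one- to two-leaf stage. Medium: loam soil with sand.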

rice = experiment: Test B flooded paddy test; assay type: in vivo, Oryza sativa; conditions: Flood, 250 g ai/ha; 0 to 100 scale where 0 is no effect and 100 is complete control
Method: as §1

wheat [4] = experiment: Test A preemergence; assay type: in vivo, Triticum aestivum
Excerpt: as §2, §3

barnyardgrass [5] = experiment: Test A preemergence; assay type: in vivo, Echinochloa crus-galli
In short: as §4

morningglory [6] = experiment: Test A preemergence; assay type: in vivo, Ipomoea spp.; conditions: for Morningglory plant response rating (0 to 100 scale): 125 g ai/ha
In short: as §4

pigweed [7] = experiment: Test A preemergence; assay type: in vivo, Amaranthus retroflexus
In short: as §4

Heteranthera limosa = experiment: Test B flooded paddy test; assay type: in vivo; conditions: Flood, 250 g ai/ha; 0 to 100 scale where 0 is no effect and 100 is complete control
Method: as §1

giant foxtail [8] = experiment: Test A postemergence; assay type: in vivo, Setaria faberii
In short: as §4

corn [9] = experiment: Test A postemergence; assay type: in vivo, Zea mays
Excerpt: as §2, §3

morningglory [10] = experiment: Test A postemergence; assay type: in vivo, Ipomoea spp.
Excerpt: as §2, §3

large (Lg) crabgrass [11] = experiment: Test A postemergence; assay type: in vivo, Digitaria sanguinalis
In short: as §4

sedge, umbrella = experiment: Test B flooded paddy test; assay type: in vivo, Cyperus difformis; conditions: Flood, 250 g ai/ha; 0 to 100 scale where 0 is no effect and 100 is complete control
Method: as §1

velvetleaf [12] = experiment: Test A postemergence; assay type: in vivo, Abutilon theophrasti
In short: as §4

large (Lg) crabgrass [13] = experiment: Test A preemergence; assay type: in vivo, Digitaria sanguinalis
In short: as §4

corn [14] = experiment: Test A preemergence; assay type: in vivo, Zea mays
In short: as §4

giant foxtail [15] = experiment: Test A preemergence; assay type: in vivo, Setaria faberii
Excerpt: as §2, §3

pigweed [16] = experiment: Test A postemergence; assay type: in vivo, Amaranthus retroflexus
In short: as §4

velvetleaf [17] = experiment: Test A preemergence; assay type: in vivo, Abutilon theophrasti
In short: as §4

[18] = 125 g ai/ha, 0 to 100 scale where 0 is no effect and 100 is complete control
[19] = 500 g ai/ha, 0 to 100 scale where 0 is no effect and 100 is complete control
[20] = 125 g ai/ha, 0 to 100 scale, 0 no effect, 100 complete control
[21] = 1000 g ai/ha, 0 to 100 scale, 0 no effect, 100 complete control
[22] = 1000 g ai/ha, 0 to 100 scale, 0 no effect, 100 complete control, approx. 10 days
[23] = 500 g ai/ha, 0 to 100 scale, 0 no effect, 100 complete control
[24] = 500 g ai/ha, 0 to 100 scale, 0 no effect, 100 complete control, approx. 10 days

Fc1cc(Oc2ncc(Cl)cn2)c(-n2cc(Br)cn2)cc1F [Compound 196]
Plant response rating, Barnyardgrass (barnyardgrass [1]): 20 | Barnyardgrass plant response rating (barnyardgrass [2]; [18]): 10 | Plant response rating, Barnyardgrass (barnyardgrass [2]; [19]): 50 | Wheat plant response rating (wheat [3]; [18]): 0 | Plant response rating, Wheat (wheat [3]; [19]): 10 | Plant response rating, Rice (rice): 0 | Wheat plant response rating (0 to 100 scale) (wheat [4]; 125 g ai/ha): 0 | Wheat plant response rating (wheat [4]; [19]): 0 | Barnyardgrass plant response rating (0 to 100 scale, 0 is no effect, 100 is complete control) (barnyardgrass [5]; 125 g ai/ha): 0 | Barnyardgrass plant response rating (barnyardgrass [5]; [19]): 40 | Morningglory plant response rating (0 to 100 scale) (morningglory [6]): 0 | Morningglory plant response rating (morningglory [6]; [19]): 0 | Pigweed plant response rating (0 to 100 scale) (pigweed [7]; 125 g ai/ha): 90 | Pigweed plant response rating (pigweed [7]; [19]): 100 | Plant response rating, Ducksalad (Heteranthera limosa): 85 | Foxtail, Giant plant response rating (giant foxtail [8]; [18]): 30 | Plant response rating, Foxtail, Giant (giant foxtail [8]; [19]): 80 | Corn plant response rating (corn [9]; [18]): 10 | Plant response rating, Corn (corn [9]; [19]): 40 | Morningglory plant response rating (morningglory [10]; [18]): 20 | Plant response rating, Morningglory (morningglory [10]; [19]): 80 | Crabgrass, Large plant response rating (large (Lg) crabgrass [11]; [18]): 30 | Plant response rating, Crabgrass, Large (large (Lg) crabgrass [11]; [19]): 90 | Plant response rating, Sedge, Umbrella (sedge, umbrella): 70 | Velvetleaf plant response rating (velvetleaf [12]; [18]): 100 | Plant response rating, Velvetleaf (velvetleaf [12]; [19]): 100 | Crabgrass, Large plant response rating (0 to 100 scale) (large (Lg) crabgrass [13]; 125 g ai/ha): 60 | Crabgrass, Large plant response rating (large (Lg) crabgrass [13]; [19]): 100 | Corn plant response rating (0 to 100 scale) (corn [14]; 125 g ai/ha): 0 | Corn plant response rating (corn [14]; [19]): 0 | Foxtail, Giant plant response rating (0 to 100 scale) (giant foxtail [15]; 125 g ai/ha): 50 | Foxtail, Giant plant response rating (giant foxtail [15]; [19]): 90 | Pigweed plant response rating (pigweed [16]; [18]): 100 | Plant response rating, Pigweed (pigweed [16]; [19]): 100 | Velvetleaf plant response rating (0 to 100 scale) (velvetleaf [17]; 125 g ai/ha): 20 | Velvetleaf plant response rating (velvetleaf [17]; [19]): 40

NN=Cc1cccc(Oc2ncc(Cl)cn2)c1-n1cc(Cl)cn1 [Compound 295]
Plant response rating, Barnyardgrass (barnyardgrass [1]): 0 | Plant response rating, Barnyardgrass (barnyardgrass [2]; [20]): 0 | Plant response rating, Barnyardgrass (barnyardgrass [2]; [19]): 0 | Plant response rating, Wheat (wheat [3]; [20]): 0 | Plant response rating, Wheat (wheat [3]; [19]): 0 | Plant response rating, Rice (rice): 0 | Wheat plant response rating (0 to 100 scale) (wheat [4]; 125 g ai/ha): 0 | Wheat plant response rating (wheat [4]; [19]): 0 | Barnyardgrass plant response rating (0 to 100 scale, 0 is no effect, 100 is complete control) (barnyardgrass [5]; 125 g ai/ha): 0 | Barnyardgrass plant response rating (barnyardgrass [5]; [19]): 0 | Morningglory plant response rating (0 to 100 scale) (morningglory [6]): 0 | Morningglory plant response rating (morningglory [6]; [19]): 0 | Pigweed plant response rating (0 to 100 scale) (pigweed [7]; 125 g ai/ha): 20 | Pigweed plant response rating (pigweed [7]; [19]): 60 | Plant response rating, Ducksalad (Heteranthera limosa): 0 | Plant response rating, Foxtail, Giant (giant foxtail [8]; [20]): 0 | Plant response rating, Foxtail, Giant (giant foxtail [8]; [19]): 0 | Plant response rating, Corn (corn [9]; [20]): 0 | Plant response rating, Corn (corn [9]; [19]): 0 | Plant response rating, Morningglory (morningglory [10]; [20]): 40 | Plant response rating, Morningglory (morningglory [10]; [19]): 40 | Plant response rating, Crabgrass, Large (large (Lg) crabgrass [11]; [20]): 0 | Plant response rating, Crabgrass, Large (large (Lg) crabgrass [11]; [19]): 0 | Plant response rating, Sedge, Umbrella (sedge, umbrella): 0 | Plant response rating, Velvetleaf (velvetleaf [12]; [20]): 30 | Plant response rating, Velvetleaf (velvetleaf [12]; [19]): 30 | Crabgrass, Large plant response rating (0 to 100 scale) (large (Lg) crabgrass [13]; 125 g ai/ha): 0 | Crabgrass, Large plant response rating (large (Lg) crabgrass [13]; [19]): 0 | Corn plant response rating (0 to 100 scale) (corn [14]; 125 g ai/ha): 0 | Corn plant response rating (corn [14]; [19]): 0 | Foxtail, Giant plant response rating (0 to 100 scale) (giant foxtail [15]; 125 g ai/ha): 0 | Foxtail, Giant plant response rating (giant foxtail [15]; [19]): 0 | Plant response rating, Pigweed (pigweed [16]; [20]): 40 | Plant response rating, Pigweed (pigweed [16]; [19]): 70 | Velvetleaf plant response rating (0 to 100 scale) (velvetleaf [17]; 125 g ai/ha): 0 | Velvetleaf plant response rating (velvetleaf [17]; [19]): 0

CC(=O)c1cn(-c2c(Br)cccc2Oc2ncc(Cl)cn2)nn1 [Compound 280]
Plant response rating, Barnyardgrass (barnyardgrass [1]): 10 | Plant response rating, Barnyardgrass (barnyardgrass [2]; [21]): 90 | Plant response rating, Wheat (wheat [3]; [21]): 40 | Plant response rating, Rice (rice): 10 | Wheat plant response rating (wheat [4]; [22]): 40 | Barnyardgrass plant response rating (barnyardgrass [5]; [22]): 100 | Morningglory plant response rating (morningglory [6]; [22]): 0 | Pigweed plant response rating (pigweed [7]; [22]): 100 | Plant response rating, Ducksalad (Heteranthera limosa): 30 | Plant response rating, Foxtail, Giant (giant foxtail [8]; [21]): 90 | Plant response rating, Corn (corn [9]; [21]): 50 | Plant response rating, Morningglory (morningglory [10]; [21]): 30 | Plant response rating, Crabgrass, Large (large (Lg) crabgrass [11]; [21]): 90 | Plant response rating, Sedge, Umbrella (sedge, umbrella): 10 | Plant response rating, Velvetleaf (velvetleaf [12]; [21]): 90 | Crabgrass, Large plant response rating (large (Lg) crabgrass [13]; [22]): 100 | Corn plant response rating (corn [14]; [22]): 50 | Foxtail, Giant plant response rating (giant foxtail [15]; [22]): 100 | Plant response rating, Pigweed (pigweed [16]; [21]): 100 | Velvetleaf plant response rating (velvetleaf [17]; [22]): 100

N#Cc1cnn(-c2ccccc2Oc2ncc(Cl)cn2)c1 [Compound 33]
Plant response rating, Barnyardgrass (barnyardgrass [1]): 10 | Plant response rating, Barnyardgrass (barnyardgrass [2]; [18]): 0 | Plant response rating, Barnyardgrass (barnyardgrass [2]; [23]): 100 | Plant response rating, Wheat (wheat [3]; [18]): 0 | Plant response rating, Wheat (wheat [3]; [23]): 90 | Plant response rating, Rice (rice): 0 | Plant response rating, Wheat (wheat [4]; [18]): 0 | Wheat plant response rating (wheat [4]; [24]): 0 | Plant response rating, Barnyardgrass (barnyardgrass [5]; [18]): 0 | Barnyardgrass plant response rating (barnyardgrass [5]; [24]): 70 | Plant response rating, Pigweed (pigweed [7]; [18]): 100 | Pigweed plant response rating (pigweed [7]; [24]): 100 | Plant response rating, Ducksalad (Heteranthera limosa): 80 | Plant response rating, Foxtail, Giant (giant foxtail [8]; [18]): 70 | Plant response rating, Foxtail, Giant (giant foxtail [8]; [23]): 100 | Plant response rating, Corn (corn [9]; [18]): 0 | Plant response rating, Corn (corn [9]; [23]): 100 | Plant response rating, Crabgrass, Large (large (Lg) crabgrass [11]; [18]): 20 | Plant response rating, Crabgrass, Large (large (Lg) crabgrass [11]; [23]): 80 | Plant response rating, Sedge, Umbrella (sedge, umbrella): 20 | Plant response rating, Velvetleaf (velvetleaf [12]; [18]): 100 | Plant response rating, Velvetleaf (velvetleaf [12]; [23]): 100 | Plant response rating, Crabgrass, Large (large (Lg) crabgrass [13]; [18]): 90 | Crabgrass, Large plant response rating (large (Lg) crabgrass [13]; [24]): 100 | Plant response rating, Corn (corn [14]; [18]): 0 | Corn plant response rating (corn [14]; [24]): 0 | Plant response rating, Foxtail, Giant (giant foxtail [15]; [18]): 90 | Foxtail, Giant plant response rating (giant foxtail [15]; [24]): 100 | Plant response rating, Pigweed (pigweed [16]; [18]): 100 | Plant response rating, Pigweed (pigweed [16]; [23]): 100 | Plant response rating, Velvetleaf (velvetleaf [17]; [18]): 50 | Velvetleaf plant response rating (velvetleaf [17]; [24]): 100
